Experimental data from patent US20020115703A1, “Prevention of development of dyskinesias” (priority 2000, published 2002).

System: locomotor hyperactivity induced by repeated administration of D-amphetamine
Assay: Locomotor (ambulatory) activity after repeated D-amphetamine administration (behavioral sensitization), photobeam activity system
Type: in vivo, mice
Experimental: The effects of atipamezole on the locomotor hyperactivity induced by repeated administration of D-amphetamine were studied in male mice.
Experiments were performed with C57BL/ 6J strain male mice from Jackson Laboratories. Mice were transferred to the laboratory at least 2 weeks prior to use. The mice were from 8 to 20 weeks of age at the beginning of an experiment. Groups of 10 mice were housed in standard polypropylene cages (38×22×15 cm) with free access to standard certified pelleted food (RM1 Maintenance Expanded SQC; Special Diet Services, Essex, UK) and water. Ambient temperature was 22±1 C.°, and a 12:12 h light dark cycle was maintained with lights on at 6 A.M. All experiments were carried out between 7 A.M. 1 and 5 P.M. The animal care was performed in accordance with International Council for Laboratory Animal Science (ICLAS) guidelines.
D-Amphetamine sulphate (Sigma, St. Louis, Mo., U.S.A.) and atipamezole HCl (Orion Corporation, Orion Pharma, Turku, Finland) were dissolved in saline (0.9% NaCl) and administered subcutaneously (s.c.) in a 5 ml kg volume.
The locomotor activity of the mice was measured in transparent standard polypropylene animal cages (38×22×15 cm) with transparent covers and aspen bedding on the floors. Test cages were placed in the middle of the photobeam frame system (Photobeam Activity System PAS, Cage Rack, San Diego Instruments, San Diego, Calif.). A computer control unit registered the interruptions of photobeams from 16 individual cages. Three different types of movements were monitored: 1) ambulations (large horizontal movements), 2) fine movements (smaller horizontal movements), and 3) rearings (vertical movements). Locomotor activity was measured at 5-min intervals for 2 h immediately after D-amphetamine or saline administrations.
D-amphetamine was administered subcutaneously (s.c.) at a dose of 2 mg/kg. Atipamezole was administered s.c. at a dose of 1 mg/kg 20 min before locomotor activity measurement.
In the chronic treatment group, mice were administered the dose during eight days to elicit provoked locomotor hyperactivity to D-amphetamine and the effect of the atipamezole to the locomotor activity. Mice groups in the chronic treatment schedule were saline, saline-amphetamine, amphetamine, atipamezole and atipamezole-amphetamine. A day before experiment, mice were habituated to the test environment. Test groups with different drug treatments were administrated during four consecutive days. At days five and six, there were no drug administrations nor motor activity testing. At days seven and eight, the produced locomotor hyperactivity and effect of a single exposure of D-amphetamine (saline-amphetamine-group) were analysed. (Table 1).
At day nine, the effect of different atipamezole and amphetamine administrations to the locomotor activity on the chronic treatment groups were analysed. Treatments included saline, 1 mg/kg atipamezole, 2 mg/kg D-amphetamine, 0,3 mg/kg atipamezole- 2 mg/kg D-amphetamine and 1 mg/kg atipamezole- 2 mg/kg D-amphetamine. Chronic treatment groups were saline-, atipamezole-, amphetamine- and atipamezole-amphetamine groups. Chronic groups were treated following the schedule in Table 2.
All data are presented as mean ±SEM. Statistical analysis were performed using SPSS 9.0 for Windows (SPSS, Chicago, Ill.). Separate repeated measure analyses of variance (ANOVA) were performed on each variable for each experiment grouped on time and treatment group. Results were analysed separately, because data were collected in separate experiments with different study design. When significance (P<0.05) between treatment groups was found, comparisons at each time point (date or min) were analysed by using LSD post-hoc test.

| SMILES | D-amphetamine induced locomotion at Day 9, chronic atipamezole-amphetamine group (atipamezole 1 mg/kg 20 min before D-amphetamine 2 mg/kg days 1-9, vs amphetamine-amphetamine group (P<0.001), FIG. 2) | D-amphetamine-induced locomotion, chronic atipamezole pre-treatment (atipamezole 1 mg/kg s.c. 20 min before D-amphetamine 2 mg/kg s.c. over days 1-8, vs amphetamine-amphetamine group, Day 2 P<0.05, Days 3-8 P<0.001, FIG. 1) | locomotor activity, atipamezole pre-treatment before saline challenge (atipamezole 1 mg/kg s.c. daily for six days, atipamezole-saline vs saline group at Day 8 (P=0.43), FIG. 1) | D-amphetamine-induced locomotor hyperactivity at Day 9 (expression of sensitization) (chronic amphetamine group, atipamezole 0.3 mg/kg 20 min before D-amphetamine 2 mg/kg at Day 9 (P=0.005), FIG. 2) | D-amphetamine-induced locomotor hyperactivity at Day 9 (expression of sensitization) (chronic amphetamine group, atipamezole 1 mg/kg 20 min before D-amphetamine 2 mg/kg at Day 9 (P<0.001), FIG. 2) | locomotor activity at Day 9 after chronic atipamezole (chronic atipamezole group (1 mg/kg days 1-8), before saline and D-amphetamine challenge at Day 9, FIG. 2) | development of sensitisation: locomotion at Day 9 with D-amphetamine only (chronic atipamezole-amphetamine group given only D-amphetamine 2 mg/kg at Day 9, vs amphetamine-amphetamine group (P=0.026), FIG. 2) | locomotor activity at Day 9, atipamezole before acute D-amphetamine (chronic saline group, atipamezole 0.3 mg/kg 20 min before D-amphetamine 2 mg/kg, compared to D-amphetamine alone (P=0.016), FIG. 2) | locomotor activity at Day 9, atipamezole before acute D-amphetamine (chronic saline group, atipamezole 1 mg/kg 20 min before D-amphetamine 2 mg/kg, compared to D-amphetamine alone (P=0.364), FIG. 2) | total ambulatory activity counts at Day 9, atipamezole alone (chronic saline group, atipamezole 1 mg/kg 20 min before saline at Day 9 (P=0.81), FIG. 2) | development and expression of sensitization (motor overactivity), overall finding (given chronically in combination with D-amphetamine, in mice) | ambulatory activity (2-h overall counts) during repeated administration (D-amphetamine 2 mg/kg s.c., six repeated administrations over days 1-8, compared to saline group, C57BL/6J male mice, FIG. 1) | ambulatory sensitization at Day 9 (chronic amphetamine group, repeated D-amphetamine 2 mg/kg (P<0.001), FIG. 2) | locomotor activity at Day 9, single D-amphetamine challenge (chronic saline group, D-amphetamine 2 mg/kg at Day 9 (P<0.001 vs saline), FIG. 2) |
| --- | --- | --- | --- | --- | --- | --- | --- | --- | --- | --- | --- | --- | --- | --- |
| CCC1(c2cnc[nH]2)Cc2ccccc2C1 [atipamezole, 4-(2-ethyl-2,3-dihydro-1H-inden-2-y1)-1H-imidazole] | decreased significantly D-amphetamine induced locomotion | decreased significantly D-amphetamine-induced locomotion | not a statistically significant difference | clearly attenuated the D-amphetamine-induced locomotor hyperactivity | clearly attenuated the D-amphetamine-induced locomotor hyperactivity | the elevation was not statistically significant | true reduction in the development of sensitisation | amplified locomotor activity | had no effect | did not alter total ambulatory activity counts | reduces the development and expression of sensitization |  |  |  |
| C[C@H](N)Cc1ccccc1 [D-amphetamine] |  |  |  |  |  |  |  |  |  |  |  | progressive enhance in ambulatory activity | developed strong ambulatory sensitization | significantly enhanced locomotor activity |
